Molecules are shown by their SMILES.

Results on 31 compounds are retold here after patent US9221822B2, “Thiazolopyrimidine modulators as immunosuppressive agents” (Katholieke Universiteit Leuven, K.U.Leuven R&D, priority 2009, dated 2015).

The first assay deals with Human peripheral blood mononuclear cells (PBMCs) as Responder cells, RPMI 1788 Stimulator cells. Nature of the assay: Mixed Lymphocyte Reaction (MLR) test. The assay is classed as cell-based. As to conditions: Homo sapiens, RPMI-1788, lowest concentration giving 50% inhibition of the MLR; 6 days coculture, 3H-thymidine incorporation. An outline of the steps:
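Human PBMC responders (0.12×10^6) were cocultured 6 days with mitomycin C-treated RPMI 1788 stimulators (0.045×10^6) and compound in RPMI 1640 with 10% FCS, in triplicate. A ^3H-thymidine pulse on day 5, harvested 18 h later, measured proliferation (cpm), converted to % inhibition versus a compound-free MLR.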
For orientation: Dividing cells build labelled thymidine or BrdU into new DNA.
Take `Nc1nc(N2CCN(C(=O)COc3cccc(Cl)c3)CC2)c2nc(-c3ccc(F)cc3)sc2n1` [Example 214, 1-(4-(5-amino-2-(4-fluorophenyl)thiazolo[5,4-d]pyrimidin-7-yl)piperazin-1-yl)-2-(3-chlorophenoxy)ethanone]: it took 121 nM to reach half-maximal inhibition (IC50). This lies in the sub-micromolar range.

The compound `Nc1nc(N2CCN(C(=O)COc3ccc(Cl)cc3)CC2)c2nc(-c3ccccc3)sc2n1` [Example 215, 1-(4-(5-amino-2-phenylthiazolo[5,4-d]pyrimidin-7-yl)piperazin-1-yl)-2-(4-chlorophenoxy)ethanone] yielded an IC50 of 116 nM.

In turn, `N#Cc1ccc(NC(=O)N2CCN(c3nc(N)nc4sc(-c5ccc(F)cc5)nc34)CC2)cc1` [Example 216, 4-(5-amino-2-(4-fluorophenyl)thiazolo[5,4-d]pyrimidin-7-yl)-N-(4-cyanophenyl)piperazine-1-carboxamide] had an IC50 of 19 nM. This IC50 is about 6.1-fold lower than that of the compound before.

With `Nc1nc(N2CCN(C(=O)Nc3ccc(F)cc3F)CC2)c2nc(-c3ccc(F)cc3)sc2n1` [Example 217, 4-(5-amino-2-(4-fluorophenyl)thiazolo[5,4-d]pyrimidin-7-yl)-N-(2,4-difluorophenyl)piperazine-1-carboxamide], 345 nM corresponded to half-maximal inhibition (IC50).

`Nc1nc(N2CCN(C(=O)Nc3ccc(Br)cc3)CC2)c2nc(-c3ccc(F)cc3)sc2n1` [Example 218, 4-(5-amino-2-(4-fluorophenyl)thiazolo[5,4-d]pyrimidin-7-yl)-N-(4-bromophenyl)piperazine-1-carboxamide] showed an IC50 of 177 nM.

For `COc1ccccc1NC(=O)N1CCN(c2nc(N)nc3sc(-c4ccc(F)cc4)nc23)CC1` [Example 219, 4-(5-amino-2-(4-fluorophenyl)thiazolo[5,4-d]pyrimidin-7-yl)-N-(2-methoxyphenyl)piperazine-1-carboxamide], the IC50 was found to be 323 nM.

As to `Cc1cccc(NC(=O)N2CCN(c3nc(N)nc4sc(-c5ccccc5)nc34)CC2)c1` [Example 220, 4-(5-amino-2-phenylthiazolo[5,4-d]pyrimidin-7-yl)-N-m-tolylpiperazine-1-carboxamide], half-maximal inhibition (IC50) was put at 170 nM.

Regarding `Nc1nc(N2CCN(C(=O)CCc3ccc(Br)cc3)CC2)c2nc(CCc3ccc(F)cc3)sc2n1` [Example 223, 1-(4-(5-amino-2-(4-fluorophenethyl)thiazolo[5,4-d]pyrimidin-7-yl)piperazin-1-yl)-3-(4-bromophenyl)propan-1-one], the IC50 is over 10000 nM.

In turn, `Nc1nc(N2CCN(C(=O)COc3ccc(O)cc3)CC2)c2nc(CCc3ccc(F)cc3)sc2n1` [Example 224, 1-(4-(5-amino-2-(4-fluorophenethyl)thiazolo[5,4-d]pyrimidin-7-yl)piperazin-1-yl)-2-(4-hydroxyphenoxy)ethanone] returned an IC50 of 1100 nM.

Compound `COC(=O)c1ccc(OCC(=O)N2CCN(c3nc(N)nc4sc(CCc5ccc(F)cc5)nc34)CC2)cc1` [Example 225, methyl 4-(2-(4-(5-amino-2-(4-fluorophenethyl)thiazolo[5,4-d]pyrimidin-7-yl)piperazin-1-yl)-2-oxoethoxy)benzoate] gave an IC50 of over 10000 nM.

Take `Nc1nc(N2CCN(C(=O)COc3ccc(OC(F)(F)F)cc3)CC2)c2nc(CCc3ccc(F)cc3)sc2n1` [Example 226, 1-(4-(5-amino-2-(4-fluorophenethyl)thiazolo[5,4-d]pyrimidin-7-yl)piperazin-1-yl)-2-(4-(trifluoromethoxy)phenoxy)ethanone]: the IC50 came out at 7120 nM.

`CC(=O)c1ccc(OCC(=O)N2CCN(c3nc(N)nc4sc(CCc5ccc(F)cc5)nc34)CC2)cc1` [Example 227, 2-(4-acetylphenoxy)-1-(4-(5-amino-2-(4-fluorophenethyl)thiazolo[5,4-d]pyrimidin-7-yl)piperazin-1-yl)ethanone] gave an IC50 of 610 nM.

Turning to `Nc1nc(N2CCN(C(=O)COc3cccc(Cl)c3)CC2)c2nc(CCc3ccc(F)cc3)sc2n1` [Example 228, 1-(4-(5-amino-2-(4-fluorophenethyl)thiazolo[5,4-d]pyrimidin-7-yl)piperazin-1-yl)-2-(3-chlorophenoxy)ethanone], the IC50 is 1720 nM.

`N#Cc1ccc(NC(=O)N2CCN(c3nc(N)nc4sc(CCc5ccc(F)cc5)nc34)CC2)cc1` [Example 229, 4-(5-amino-2-(4-fluorophenethyl)thiazolo[5,4-d]pyrimidin-7-yl)-N-(4-cyanophenyl)piperazine-1-carboxamide] gave an IC50 of 2660 nM.

For the compound `COc1ccc(OCC(=O)N2CCN(c3nc(N)nc4sc(Cc5ccc(F)cc5)nc34)CC2)cc1` [Example 230, 1-(4-(5-amino-2-(4-fluorobenzyl)thiazolo[5,4-d]pyrimidin-7-yl)piperazin-1-yl)-2-(4-methoxyphenoxy)ethanone], the midpoint of inhibition, the IC50, lay at 270 nM.

Consider `Nc1nc(N2CCN(C(=O)COc3ccc(Br)cc3)CC2)c2nc(Cc3ccc(F)cc3)sc2n1` [Example 231, 1-(4-(5-amino-2-(4-fluorobenzyl)thiazolo[5,4-d]pyrimidin-7-yl)piperazin-1-yl)-2-(4-bromophenoxy)ethanone], for which it took 550 nM to reach half-maximal inhibition (IC50). Compared with the last compound, the IC50 is about 2-fold higher.

As for `N#Cc1ccc(NC(=O)N2CCN(c3nc(N)nc4sc(Cc5ccc(F)cc5)nc34)CC2)cc1` [Example 232, 4-(5-amino-2-(4-fluorobenzyl)thiazolo[5,4-d]pyrimidin-7-yl)-N-(4-cyanophenyl)piperazine-1-carboxamide], it took 860 nM to reach half-maximal inhibition (IC50). This IC50 lies about 1.6-fold higher than the previous one.

`Nc1nc(N2CCN(C(=O)COc3ccc(F)cc3)CC2)c2nc(-c3ccc(F)cc3)sc2n1` [Example 233, 1-(4-(5-amino-2-(4-fluorophenyl)thiazolo[5,4-d]pyrimidin-7-yl)piperazin-1-yl)-2-(4-fluorophenoxy)ethanone] gave an IC50 of 74 nM.

Compound `COc1ccc(OCC(=O)N2CCN(c3nc(N)nc4sc(-c5ccc(F)cc5)nc34)CC2)cc1` [Example 234, 1-(4-(5-amino-2-(4-fluorophenyl)thiazolo[5,4-d]pyrimidin-7-yl)piperazin-1-yl)-2-(4-methoxyphenoxy)ethanone] came in with an IC50 of 37 nM.

`Nc1nc(N2CCN(C(=O)COc3ccc(Br)cc3)CC2)c2nc(-c3ccc(F)cc3)sc2n1` [Example 235, 1-(4-(5-amino-2-(4-fluorophenyl)thiazolo[5,4-d]pyrimidin-7-yl)piperazin-1-yl)-2-(4-bromophenoxy)ethanone] came in with an IC50 of 460 nM.

Take `Nc1nc(N2CCN(C(=O)CCc3ccc(F)cc3)CC2)c2nc(-c3ccc(F)cc3)sc2n1` [Example 236, 1-(4-(5-amino-2-(4-fluorophenyl)thiazolo[5,4-d]pyrimidin-7-yl)piperazin-1-yl)-3-(4-fluorophenyl)propan-1-one]: 890 nM corresponded to half-maximal inhibition (IC50). This IC50 is about 1.9-fold higher than that of the compound before.

The compound `CC(C)(Oc1ccc(Cl)cc1)C(=O)N1CCN(c2nc(N)nc3sc(-c4ccc(F)cc4)nc23)CC1` [Example 237, 1-(4-(5-amino-2-(4-fluorophenyl)thiazolo[5,4-d]pyrimidin-7-yl)piperazin-1-yl)-2-(4-chlorophenoxy)-2-methylpropan-1-one] had an IC50 of over 10000 nM.

For the compound `COc1ccc(OCC(=O)N2CCN(c3nc(N)nc4sc(CCc5cccc(OC)c5)nc34)CC2)cc1` [Example 253, 1-(4-(5-amino-2-(3-methoxyphenethyl)thiazolo[5,4-d]pyrimidin-7-yl)piperazin-1-yl)-2-(4-methoxyphenoxy)ethanone], the IC50 came out at 710 nM.

`COc1cccc(CCc2nc3c(N4CCN(C(=O)COc5ccc(Br)cc5)CC4)nc(N)nc3s2)c1` [Example 254, 1-(4-(5-amino-2-(3-methoxyphenethyl)thiazolo[5,4-d]pyrimidin-7-yl)piperazin-1-yl)-2-(4-bromophenoxy)ethanone] showed an IC50 of 1220 nM.

As to `COc1cccc(CCc2nc3c(N4CCN(C(=O)COc5ccc(Cl)cc5)CC4)nc(N)nc3s2)c1` [Example 255, 1-(4-(5-amino-2-(3-methoxyphenethyl)thiazolo[5,4-d]pyrimidin-7-yl)piperazin-1-yl)-2-(4-chlorophenoxy)ethanone], the IC50 was 710 nM.

In turn, `COc1ccc(CCc2nc3c(N4CCN(C(=O)COc5ccc(Br)cc5)CC4)nc(N)nc3s2)cc1OC` [Example 256, 1-(4-(5-amino-2-(3,4-dimethoxyphenethyl)thiazolo[5,4-d]pyrimidin-7-yl)piperazin-1-yl)-2-(4-bromophenoxy)ethanone] came in with an IC50 of 740 nM.

`COc1ccc(OCC(=O)N2CCN(c3nc(N)nc4sc(CCc5ccc(OC)c(OC)c5)nc34)CC2)cc1` [Example 257, 1-(4-(5-amino-2-(3,4-dimethoxyphenethyl)thiazolo[5,4-d]pyrimidin-7-yl)piperazin-1-yl)-2-(4-methoxyphenoxy)ethanone] showed an IC50 of 1140 nM. This IC50 is about 1.5-fold higher than that of the compound before.

In turn, `Cc1ccc(CCc2nc3c(N4CCN(C(=O)COc5ccc(Br)cc5)CC4)nc(N)nc3s2)cc1` [Example 258, 1-(4-(5-amino-2-(4-methylphenethyl)thiazolo[5,4-d]pyrimidin-7-yl)piperazin-1-yl)-2-(4-bromophenoxy)ethanone] showed an IC50 of 930 nM.

The compound `COc1ccc(OCC(=O)N2CCN(c3nc(N)nc4sc(CCc5ccc(C)cc5)nc34)CC2)cc1` [Example 259, 1-(4-(5-amino-2-(4-methylphenethyl)thiazolo[5,4-d]pyrimidin-7-yl)piperazin-1-yl)-2-(4-methoxyphenoxy)ethanone] yielded an IC50 of 960 nM.

Consider `Cc1ccc(CCc2nc3c(N4CCN(C(=O)COc5ccc(Cl)cc5)CC4)nc(N)nc3s2)cc1` [Example 260, 1-(4-(5-amino-2-(4-methylphenethyl)thiazolo[5,4-d]pyrimidin-7-yl)piperazin-1-yl)-2-(4-chlorophenoxy)ethanone], for which the IC50 stood at 820 nM.

Still in this assay, the particulars now being: lowest concentration giving 50% inhibition of the MLR; 6 days coculture, 3H-thymidine incorporation.
The compound `COc1ccc(OCC(=O)N2CCN(c3nc(N)nc4sc(-c5ccc(Cl)cc5)nc34)CC2)cc1` [Example 270, 1-(4-(5-amino-2-(4-chlorophenyl)thiazolo[5,4-d]pyrimidin-7-yl)piperazin-1-yl)-2-(4-methoxyphenoxy)ethanone] returned an IC50 of 150 nM.

One may read the IC50 as the point on the concentration scale where inhibition reaches its midpoint.
